According to patent publication EP0235823A2, “Carbapenem antibiotics, a process for preparing them and pharmaceutical compositions containing them” (Bristol-Myers Squibb Company, priority 1986, dated 1987):
Values after ≈ are worked out from the molar mass of the structure shown.

Key:
Type in all cases: cell-based
S.aureus A9537 = experiment: In vitro antibacterial activity, MIC by tube dilution; settings: Staphylococcus aureus, Nutrient Broth, overnight incubation at 37 deg. C
Text: (§1) C by tube dilution. N-formimidoyl thienamycin was included as a comparison compound.

S.faecalis A20688 = experiment: as above; settings: Enterococcus faecalis, Nutrient Broth, overnight incubation at 37 deg. C
Text: as §1

S.pneumoniae A9585 = experiment: as above; settings: Streptococcus pneumoniae, Nutrient Broth, overnight incubation at 37 deg. C
Text: as §1

S.pyogenes A9604 = experiment: as above; settings: Streptococcus pyogenes, Nutrient Broth, overnight incubation at 37 deg. C
Text: as §1

[1] = tested on: S.aureus + 50% serum A9537S; experiment: In vitro antibacterial activity, MIC by tube dilution, with 50% serum; settings: Staphylococcus aureus, read-out: MIC (mcg/ml)
Text: as §1

Q: `C[C@@H](O)[C@H]1C(=O)N2C(C(=O)[O-])=C(SCC[N+]34CCN(CC3)CC4)[C@H](C)[C@H]12` [Ex. 7, (5R,6S) 3-[2-(1,4-diazabicyclo[2.2.2.]octanium-1-yl)ethylthio]-6-(1R-hydroxyethyl)-4R-methy3-7-oxo-1-azabicyclo[3.2.0]hept-2-ene-2-carboxylate] was tested. Which MIC (S.aureus A9537) did it give?
A: 0.5 µg/mL (≈ 1.31 µM)

Q: What about the MIC (S.faecalis A20688) of the same molecule?
A: 2 µg/mL (≈ 5.24 µM)

Q: And the MIC (S.pneumoniae A9585)?
A: 0.03 µg/mL (≈ 0.0786 µM)

Q: What about the MIC (S.pyogenes A9604) of the same molecule?
A: 0.03 µg/mL (≈ 0.0786 µM)

Q: What about the MIC [1] of the same molecule?
A: 0.13 µg/mL (≈ 0.341 µM)

Q: With `CC(O)C1C(=O)N2C(C(=O)O)=C(SCCN=CN)CC12` (stereo not shown) [N-Formimidoy Thienamycin, N-formimidoyl thienamycin] as the molecule, how does the MIC (S.aureus A9537) read?
A: 0.004 µg/mL (≈ 0.0134 µM)

Q: What about the MIC (S.faecalis A20688) of the same molecule?
A: 0.25 µg/mL (≈ 0.835 µM)

Q: And the MIC (S.pneumoniae A9585)?
A: 0.002 µg/mL (≈ 0.00668 µM)

Q: And the MIC (S.pyogenes A9604)?
A: 0.002 µg/mL (≈ 0.00668 µM)

Q: And the MIC [1]?
A: 0.016 µg/mL (≈ 0.0534 µM)
